Assay results taken from patent US11472792B2, “Herbicidal mixtures” (SYNGENTA CROP PROTECTION AG, priority 2019, dated 2022).

Columns and labels:
Format in all cases: in vivo
[1] = system: Ipomoea hederacea (IPOHE); assay: Herbicidal efficacy, pre-emergence application (glasshouse); settings: Ipomoea hederacea, 312 h, evaluated visually after 13 days, 100=total damage, 0=no damage, read-out: percentage phytotoxicity to the plant, IPOHE
Method: (§1) Seeds of a variety of test species [Ipomoea hederacea (IPOHE); Zea mays (ZEAMX); Echinochloa crus-galli (ECHCG); Setaria faberi (SETFA); Abutilon theophrasti (ABUTH); Amaranthus retroflexus (AMARE)] were sown in standard sterilised soil in pots. After cultivation for one day (pre-emergence) or after 8 days cultivation (post-emergence) under controlled conditions in a glasshouse (at 24/16° C., day/night; 14 hours light; 65% humidity), the plants were sprayed with an aqueous spray solution derived from the formulation of the technical active ingredient in acetone/water (50:50) solution containing 0.5% Tween 20 (polyoxyethelyene sorbitan monolaurate, CAS RN 9005-64-5), subsequently diluted in water, and sprayed to give the stated application rate.
(§2) The test plants were then grown under controlled conditions in a glasshouse (at 24/16° C., day/night; 14 hours light; 65% humidity) and watered twice daily.
(§3) After 13 days for pre and post-emergence, the test was evaluated visually for percentage phytotoxicity to the plant (where 100=total damage to plant; 0=no damage to plant).

[2] = system: Amaranthus retroflexus (AMARE); assay: as above; settings: Amaranthus retroflexus, 312 h, evaluated visually after 13 days, 100=total damage, 0=no damage, read-out: percentage phytotoxicity to the plant, AMARE
Method: as §1, §2, §3

[3] = system: Zea mays (ZEAMX); assay: as above; settings: Zea mays, 312 h, evaluated visually after 13 days, 100=total damage, 0=no damage, read-out: percentage phytotoxicity to the plant, ZEAMX
Method: as §1, §2, §3

[4] = system: Setaria faberi (SETFA); assay: as above; settings: Setaria faberi, 312 h, evaluated visually after 13 days, 100=total damage, 0=no damage, read-out: percentage phytotoxicity to the plant, SETFA
Method: as §1, §2, §3

[5] = system: Abutilon theophrasti (ABUTH); assay: as above; settings: Abutilon theophrasti, 312 h, evaluated visually after 13 days, 100=total damage, 0=no damage, read-out: percentage phytotoxicity to the plant, ABUTH
Method: as §1, §2, §3

[6] = system: Echinochloa crus-galli (ECHCG); assay: as above; settings: Echinochloa crus-galli, 312 h, evaluated visually after 13 days, 100=total damage, 0=no damage, read-out: percentage phytotoxicity to the plant, ECHCG
Method: as §1, §2, §3

[7] = system: Ipomoea hederacea (IPOHE); assay: Herbicidal efficacy, post-emergence application (glasshouse); settings: Ipomoea hederacea, 312 h, evaluated visually after 13 days, 100=total damage, 0=no damage, read-out: percentage phytotoxicity to the plant, IPOHE
Method: as §1, §2, §3

[8] = system: Amaranthus retroflexus (AMARE); assay: as above; settings: Amaranthus retroflexus, 312 h, evaluated visually after 13 days, 100=total damage, 0=no damage, read-out: percentage phytotoxicity to the plant, AMARE
Method: as §1, §2, §3

[9] = system: Zea mays (ZEAMX); assay: as above; settings: Zea mays, 312 h, evaluated visually after 13 days, 100=total damage, 0=no damage, read-out: percentage phytotoxicity to the plant, ZEAMX
Method: as §1, §2, §3

[10] = system: Setaria faberi (SETFA); assay: as above; settings: Setaria faberi, 312 h, evaluated visually after 13 days, 100=total damage, 0=no damage, read-out: percentage phytotoxicity to the plant, SETFA
Method: as §1, §2, §3

[11] = system: Abutilon theophrasti (ABUTH); assay: as above; settings: Abutilon theophrasti, 312 h, evaluated visually after 13 days, 100=total damage, 0=no damage, read-out: percentage phytotoxicity to the plant, ABUTH
Method: as §1, §2, §3

[12] = system: Echinochloa crus-galli (ECHCG); assay: as above; settings: Echinochloa crus-galli, 312 h, evaluated visually after 13 days, 100=total damage, 0=no damage, read-out: percentage phytotoxicity to the plant, ECHCG
Method: as §1, §2, §3

Row | Compound | pest or weed control at 250 g/ha [1] | pest or weed control at 250 g/ha [2] | plant injury at 250 g/ha [3] | pest or weed control at 250 g/ha [4] | pest or weed control at 250 g/ha [5] | pest or weed control at 250 g/ha [6] | pest or weed control at 250 g/ha [7] | pest or weed control at 250 g/ha [8] | plant injury at 250 g/ha [9] | pest or weed control at 250 g/ha [10] | pest or weed control at 250 g/ha [11] | pest or weed control at 250 g/ha [12]
1 | CN1C[C@H](c2cc(C(F)(F)F)n(C)n2)[C@@H](C(=O)Nc2cccc(F)c2F)C1=O [Compound 2.1, (3S,4R)-N-(2,3-difluorophenyl)-1-methyl-4-[1-methyl-5-(trifluoromethyl)pyrazol-3-yl]-2-oxo-pyrrolidine-3-carboxamide] | 30% | 70% | 90% | 90% | 10% | 100% | 0% | 20% | 80% | 90% | 0% | 90%
2 | CN1C[C@H](c2cc(C(F)(F)F)n(C)n2)[C@@H](C(=O)Nc2ccccc2F)C1=O [Compound 2.2, (3S,4R)-N-(2-fluorophenyl)-1-methyl-4-[1-methyl-5-(trifluoromethyl)pyrazol-3-yl]-2-oxo-pyrrolidine-3-carboxamide] | 0% | 20% | 20% | 90% | 0% | 90% | 0% | 0% | 50% | 90% | 0% | 90%
3 | CN1C[C@H](c2cc(C(F)(F)F)n(C)n2)[C@@H](C(=O)Nc2ccc(F)cc2F)C1=O [Compound 2.3, (3S,4R)-N-(2,4-difluorophenyl)-1-methyl-4-[1-methyl-5-(trifluoromethyl)pyrazol-3-yl]-2-oxo-pyrrolidine-3-carboxamide] | 10% | 50% | 60% | 90% | 70% | 90% | 10% | 10% | 60% | 70% | 60% | 70%
4 | CN1C[C@H](c2cc(C(F)(F)F)n(C)n2)[C@@H](C(=O)Nc2cccc(F)c2OC(F)(F)F)C1=O [Compound 2.4, (3S,4R)-N-[3-fluoro-2-(trifluoromethoxy)phenyl]-1-methyl-4-[1-methyl-5-(trifluoromethyl)pyrazol-3-yl]-2-oxo-pyrrolidine-3-carboxamide] | 50% | 0% | 30% | 90% | 0% | 90% | 0% | 0% | 0% | 70% | 0% | 70%
5 | CN1C[C@H](c2cc(C(F)(F)F)n(C)n2)[C@@H](C(=O)Nc2cccc(F)c2C(F)(F)F)C1=O [Compound 2.5, (3S,4R)-N-[3-fluoro-2-(trifluoromethyl)phenyl]-1-methyl-4-[1-methyl-5-(trifluoromethyl)pyrazol-3-yl]-2-oxo-pyrrolidine-3-carboxamide] | 10% | 0% | 20% | 90% | 0% | 90% | 0% | 30% | 10% | 80% | 0% | 80%
